Values joined by “and” are separate entries in the source; they are usually repeats but may differ in a detail not shown here. Identical values can stand only once.
How the values were obtained:
rat islets = assay: Rat islet insulin secretion; type: cell-based; conditions: read-out: Rat islet insulin secretion Mean ED50
Protocol: (§1) To assess action of compounds of the present invention in a system representing physiological GLP-1R and GIP-R expression levels insulin secretion, compounds are tested for effects on insulin secretion from wild-type rodent islets.
(§2) After common bile duct cannulation in male C57B1/6 mice (22-26 g) or male Sprague-Dawley rats (approx. 250 g), the pancreas is distended with Hank's buffer (3 ml for mice or 10 ml for rats, containing 2% BSA and 0.75 mg/ml Clzyme collagenase (VitaCyte). Subsequently, tissues are digested in Hank's buffer at 37° C. for 11-13 minutes (mice) or 14-16 minutes for rat pancreata. Purified islets (Histopaque-1100 gradient [Sigma-Aldrich], […] at 750× gravity) are cultured overnight in RPMI-1640 medium (Invitrogen) containing 10% FBS, 100 U/ml penicillin and 100 μg/ml streptomycin, and preconditioned by starvation in Earle's Balanced Salt Solution (EBSS) supplemented with 0.1% BSA and 2.8 mM glucose. Subsequently, islets are incubated in EBSS (Invitrogen) supplemented with 0.1% BSA, 2.8-11.2 mM glucose and increasing levels of compound (6 batches of 4 islets/condition). GLP-1(7-36)amide (30 nM) is used as a positive control. Insulin is measured over 90 minutes in supernatant using the MSD Insulin Assay (Meso Scale, Gaithersburg, Md.).

mouse islets = assay: Mouse islet insulin secretion; type: cell-based; conditions: read-out: Mouse islet insulin secretion Mean ED50
Protocol: as §1, §2

human GLP-1R [1] = biological target: T1, human GLP-1R (Homo sapiens, UniProt P43220); type: binding
T1 construct: expressed in transfected cells; host or cells: 293HEK, Hygromycin-selected; crude plasma membranes

human GLP-1R [2] = biological target: T1, human GLP-1R; assay: Functional hGLP-1R cAMP assay in HEK-293 clonal cells; type: cell-based; conditions: HEK293; percent of maximal response of hGLP-1(7-36)NH2
[3] = Weight loss, body composition and hepatic steatosis in DIO mice; type: in vivo, mouse; conditions: for Blood Glucose: Day 15
Protocol: The effects on weight loss, body composition and hepatic steatosis in DIO mice for compounds of the present invention are evaluated in C57/BL6 DIO mice. […] Animals are individually housed in a temperature-controlled (24° C.) facility with a 12 hour light/dark cycle (lights on 22:00), and free access to food and water. […] Daily body weight and food intake are measured throughout the study. Absolute changes in body weight are calculated by subtracting the body weight of the same animal prior to the first injection of compound. […] On Day 15, blood glucose is measured with Accu-Chek glucometer (Roche) from tail vein blood and then animals may be sacrificed and livers removed and frozen. Liver triglycerides, determined from homogenates of livers collected at sacrifice, and plasma cholesterol are measured on a Hitachi Modular P clinical analyzer. Statistical comparisons between groups are done using one-way ANOVA followed by Dunnett's multiple comparison test. The ED50 for weight loss lowering is determined in GraphPad Prism using the non-linear fit tool.

human GIP-R = biological target: T2, human GIP-R (Homo sapiens, UniProt P48546); assay: Functional hGIP-R cAMP assay in HEK-293 clonal cells; conditions: HEK293, read-out: Human GIP-R Emax
T2 sequence (P48546 22-466): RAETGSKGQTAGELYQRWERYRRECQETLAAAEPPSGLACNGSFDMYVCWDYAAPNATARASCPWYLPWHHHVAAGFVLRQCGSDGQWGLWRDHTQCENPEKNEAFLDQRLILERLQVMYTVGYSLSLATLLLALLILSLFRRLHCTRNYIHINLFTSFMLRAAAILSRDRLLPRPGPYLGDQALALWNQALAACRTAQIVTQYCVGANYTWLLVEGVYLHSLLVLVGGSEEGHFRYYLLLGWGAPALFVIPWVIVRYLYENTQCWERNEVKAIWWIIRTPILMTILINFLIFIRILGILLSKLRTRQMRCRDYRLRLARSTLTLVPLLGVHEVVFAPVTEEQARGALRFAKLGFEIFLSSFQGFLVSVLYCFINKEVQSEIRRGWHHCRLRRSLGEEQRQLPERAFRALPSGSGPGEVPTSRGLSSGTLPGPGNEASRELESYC

[4] = Pharmacokinetics in cynomolgus monkeys; type: in vivo; conditions: cynomolgus monkey, plasma, single SC 0.2 mg/kg, male monkeys, n = 2
Summary of the method: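 Single 0.2 mg/kg dose, intravenous or subcutaneous, in 20 mM citrate buffer pH 7.0; blood sampled from 2 to 312 hours post-dose. Plasma extracted with N-butanol, reconstituted in 30% acetonitrile/0.1% formic acid and quantified by LC/MS on a C5 column with Q-Exactive detection.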

Human GCGR = Human GCGR (Homo sapiens, UniProt P47871); assay: Functional hGCGR cAMP assay in HEK-293 clonal cells
[5] = Rat in vivo insulin secretion following intravenous glucose (IVGTT); conditions: s.c. 16 hour prior to glucose
Protocol: Male Wistar rats (Harlan Labs, Indianapolis, Ind.) are randomized by body weight and dosed 1.5 ml/kg s.c. 16 hour prior to glucose administration and then fasted. Doses are vehicle, 0.1, 0.3, 1, 3 and 10 nmol/kg. Animals are weighed, and then anesthetized with sodium pentobarbital (Nembutal Sodium solution; Ovation Pharmaceuticals) dosed i.p. (65 mg/kg, 30 mg/ml). A time zero blood sample is collected into EDTA tubes after which glucose is administered ([…], 5 ml/kg). Blood samples are collected at 2, 4, 6, 10, 20, and 30 minutes post glucose. Plasma glucose levels are determined using a Hitachi analyzer (Roche) and plasma insulin is measured by the MSD insulin assay (Meso Scale, Gaithersburg, Md.).

GIP receptor = biological target: T3, GIP receptor (Mus musculus, UniProt Q0P543); assay: Intracellular cAMP in GLUTag incretin-secreting cells; type: cell-based, murine; conditions: 0.001-3 μM
T3 construct: endogenous in cells; host or cells: GLUTag cells (murine enteroendocrine line)
T3 sequence (Q0P543 19-460): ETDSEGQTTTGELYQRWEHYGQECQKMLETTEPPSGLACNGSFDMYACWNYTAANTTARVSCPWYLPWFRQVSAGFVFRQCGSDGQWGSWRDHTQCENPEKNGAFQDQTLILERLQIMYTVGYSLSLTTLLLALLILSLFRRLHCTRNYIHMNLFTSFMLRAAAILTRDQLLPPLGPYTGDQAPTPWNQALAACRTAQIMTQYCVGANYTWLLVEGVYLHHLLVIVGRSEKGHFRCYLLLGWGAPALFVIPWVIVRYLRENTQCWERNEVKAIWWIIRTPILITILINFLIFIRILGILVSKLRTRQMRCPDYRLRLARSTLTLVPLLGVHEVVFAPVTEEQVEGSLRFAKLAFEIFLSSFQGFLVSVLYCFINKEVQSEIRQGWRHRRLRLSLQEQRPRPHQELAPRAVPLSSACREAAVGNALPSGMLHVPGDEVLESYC
Protocol: On the day of the assay, media is decanted from cells and 50 μl EBSS Buffer (0.1% BSA, 2 mM glucose and 0.25 mM IBMX) containing a range of compound concentrations (0.001-3 μM) is added to cells. The plate is incubated at 37° C. for one hour and cAMP levels determined using Cisbio Dynamic 2 cAMP HTRF kit (Bedford, Mass.). 25 μl of anti-cAMP cryptate and 25 μl cAMP d2 is added to each well and plates incubated for one hour at room temperature. […] Data is analyzed with GraphPad using a 4-parameter non-linear logistic algorithm

T1 sequence (P43220 24-463): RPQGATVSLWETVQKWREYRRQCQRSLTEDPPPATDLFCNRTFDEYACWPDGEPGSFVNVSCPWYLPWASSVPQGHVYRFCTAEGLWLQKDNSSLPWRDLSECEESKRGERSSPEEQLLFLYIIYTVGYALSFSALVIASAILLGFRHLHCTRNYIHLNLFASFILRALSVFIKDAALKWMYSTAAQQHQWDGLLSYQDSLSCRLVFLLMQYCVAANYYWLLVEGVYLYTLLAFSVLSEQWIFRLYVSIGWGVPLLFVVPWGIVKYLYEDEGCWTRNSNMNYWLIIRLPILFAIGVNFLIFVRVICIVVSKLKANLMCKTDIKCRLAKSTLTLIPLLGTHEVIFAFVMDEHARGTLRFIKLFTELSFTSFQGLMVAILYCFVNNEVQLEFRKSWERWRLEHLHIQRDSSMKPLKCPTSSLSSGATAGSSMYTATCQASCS
Human GCGR, sequence (P47871 26-477): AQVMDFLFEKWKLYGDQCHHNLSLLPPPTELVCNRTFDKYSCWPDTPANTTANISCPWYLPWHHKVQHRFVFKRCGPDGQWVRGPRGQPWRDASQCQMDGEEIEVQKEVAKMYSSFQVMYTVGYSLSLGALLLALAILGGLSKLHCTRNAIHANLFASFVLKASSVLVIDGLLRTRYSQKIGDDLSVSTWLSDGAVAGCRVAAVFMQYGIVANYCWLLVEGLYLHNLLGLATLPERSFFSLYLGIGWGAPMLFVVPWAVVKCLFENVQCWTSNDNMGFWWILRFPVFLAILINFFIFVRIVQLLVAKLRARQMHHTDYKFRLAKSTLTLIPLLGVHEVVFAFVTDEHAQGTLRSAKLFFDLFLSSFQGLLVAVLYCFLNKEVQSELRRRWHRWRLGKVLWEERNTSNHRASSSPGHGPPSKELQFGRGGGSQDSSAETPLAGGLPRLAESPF

For `CC[C@H](C)[C@H](NC(=O)[C@H](CC(C)C)NC(=O)[C@H](Cc1c[nH]c2ccccc12)NC(=O)[C@H](CCC(N)=O)NC(=O)[C@@H](NC(=O)[C@H](Cc1ccccc1)NC(=O)[C@H](C)NC(=O)[C@H](CCCCNC(=O)COCCOCCNC(=O)COCCOCCNC(=O)CC[C@H](NC(=O)CCCCCCCCCCCCCCCCC(=O)O)C(=O)O)NC(=O)[C@H](CCC(N)=O)NC(=O)[C@H](C)NC(=O)[C@@H](NC(=O)[C@H](CCCCN)NC(=O)[C@H](CC(=O)O)NC(=O)[C@H](CC(C)C)NC(=O)C(C)(C)NC(=O)[C@@H](NC(=O)[C@H](CO)NC(=O)[C@H](Cc1ccc(O)cc1)NC(=O)[C@H](CC(=O)O)NC(=O)[C@H](CO)NC(=O)[C@@H](NC(=O)[C@H](Cc1ccccc1)NC(=O)[C@@H](NC(=O)CNC(=O)[C@H](CCC(=O)O)NC(=O)C(C)(C)NC(=O)[C@@H](N)Cc1ccc(O)cc1)[C@@H](C)O)[C@@H](C)O)[C@@H](C)CC)[C@@H](C)CC)C(C)C)C(=O)N[C@@H](C)C(=O)NCC(=O)NCC(=O)N1CCC[C@H]1C(=O)N[C@@H](CO)C(=O)N[C@@H](CO)C(=O)NCC(=O)N[C@@H](C)C(=O)N1CCC[C@H]1C(=O)N1CCC[C@H]1C(=O)N1CCC[C@H]1C(=O)N[C@@H](CO)C(N)=O` [Example 3], the EC50 (rat islets) was 0.0349 µM, the EC50 (mouse islets) was 0.0589 µM and the “Molar ratio of hGLP-1R/hGIP-R” value (human GLP-1R [1]; normalized by factor 4.53 from native GIP and GLP-1 binding) was 3.53. For the same compound, the “Absolute ratio of hGLP-1R/hGIP-R” value (human GLP-1R [1]; ratio of Ki values) was 16, the Emax (human GLP-1R [2]) was 96.2 ± 6.2% and the “% Change from starting body weight” value ([3]; Table 8, 10 nmol/kg) was −13.38 ± 0.88 %. The “% Change from starting fat mass” value ([3]; Table 8, 10 nmol/kg) was −20.76 ± 2.42 %, the “% Change from starting body weight” value ([3]; Table 8, 30 nmol/kg) was −18.13 ± 1.44 % and the “% Change from starting fat mass” value ([3]; Table 8, 30 nmol/kg) was −30.90 ± 2.06 %. For the same compound, the “% Change from starting body weight” value ([3]; Table 8, 100 nmol/kg) was −25.84 ± 1.93 %, the “% Change from starting fat mass” value ([3]; Table 8, 100 nmol/kg) was −45.92 ± 2.15 % and the “Plasma Cholesterol” value ([3]; Table 11, 10 nmol/kg) was 213.2 ± 15.54 mg/dL. For the same compound, the “Plasma Triglycerides” value ([3]; Table 11, 10 nmol/kg) was 30.38 ± 8.23 mg/dL, the “Blood Glucose” value ([3]; Table 11, 10 nmol/kg) was 109.5 ± 2.35 mg/dL and the “Plasma Cholesterol” value ([3]; Table 11, 30 nmol/kg) was 177.4 ± 16.58 mg/dL. For the same compound, the “Plasma Triglycerides” value ([3]; Table 11, 30 nmol/kg) was 21.32 ± 2.48 mg/dL, the “Blood Glucose” value ([3]; Table 11, 30 nmol/kg) was 107.6 ± 1.32 mg/dL and the “Plasma Cholesterol” value ([3]; Table 11, 100 nmol/kg) was 194.00 ± 14.40 mg/dL. For the same compound, the “Plasma Triglycerides” value ([3]; Table 11, 100 nmol/kg) was 20.55 ± 4.60 mg/dL, the “Blood Glucose” value ([3]; Table 11, 100 nmol/kg) was 102.00 ± 0.50 mg/dL and the Emax (human GIP-R) was 106 ± 3%. For the same compound, the CL/F [4] was 1.3 mL/h/kg, the Cmax [4] was 3000 ng/mL and the AUC(0-inf) ([4]; read-out: Mean AUC0-inf) was 153 µg·h/mL. The half-life ([4]; read-out: Mean T1/2 (converted)) was 34 h, the Tmax ([4]; read-out: Mean Tmax) was 8 h and the EC50 (Human GCGR) was over 1 µM. The “% max increase of insulin AUC” value [5] was 314 +/− 38% and 219 +/− 19% and the “ED50 for insulin, rat IVGTT” value [5] was 1.00 nmol/kg and 1.42 nmol/kg.

With `CC[C@H](C)[C@H](NC(=O)[C@H](Cc1ccccc1)NC(=O)[C@H](CCC(=O)O)NC(=O)[C@H](CCCCN)NC(=O)[C@H](C)NC(=O)[C@H](C)NC(=O)[C@H](CCC(N)=O)NC(=O)CNC(=O)[C@H](CCC(=O)O)NC(=O)[C@H](CC(C)C)NC(=O)[C@H](Cc1ccc(O)cc1)NC(=O)[C@H](CO)NC(=O)[C@H](CO)NC(=O)[C@@H](NC(=O)[C@H](CC(=O)O)NC(=O)[C@H](CO)NC(=O)[C@@H](NC(=O)[C@H](Cc1ccccc1)NC(=O)[C@@H](NC(=O)CNC(=O)[C@H](CCC(=O)O)NC(=O)[C@H](C)NC(=O)[C@@H](N)Cc1c[nH]cn1)[C@@H](C)O)[C@@H](C)O)C(C)C)C(=O)N[C@@H](C)C(=O)N[C@@H](Cc1c[nH]c2ccccc12)C(=O)N[C@@H](CC(C)C)C(=O)N[C@H](C(=O)N[C@@H](CCCCN)C(=O)NCC(=O)N[C@@H](CCCNC(=N)N)C(N)=O)C(C)C` [GLP-1,7-36-NH2] the “cAMP accumulation in GLUTag cells” value (GIP receptor) was “fails to induce any changes in cAMP at all concentrations tested”.

Reference: patent publication US9474780B2, “GIP and GLP-1 co-agonist compounds” (Eli Lilly and Company, priority 2015, dated 2016)
